19 compounds from US20240360157A1, “TYK2 INHIBITORS” (BIOGEN MA INC., priority 2021, published 2024) can be followed below.

What all share (format): biochemical
Experiment [1] deals with human TYK2 catalytic kinase (JH1) domain (Homo sapiens (Human), UniProt P29597). In words: ADP-Glo Kinase Assay, recombinant TYK2 catalytic kinase (JH1) domain. The conditions noted are these: recombinant JH1 domain 2 nM, 10 μM ATP, JAK3-974 peptide, mean, read-out: TYK2 biochem IC50 (nM) Mean. As to the method: (§1) Compounds of the disclosure were assessed for their ability to inhibit TYK2, JAK1, JAK2, and JAK3 activity. The inhibitory properties of the compounds of the disclosure described herein can be evidenced by testing in any one of the following protocols.
(§2) The kinase activity of recombinantly generated catalytic kinase (also known as JH1) domain of human JAK1, JAK2, JAK3 and TYK2 were evaluated in a plate-based assay using the ADP-Glo™ Kinase Assay platform. Specifically, 4 nM of recombinant JAK1 kinase domain is used to phosphorylate 50 μM of a JAK3-342 (sequence ALVDGYFRLTT) peptide in the presence of 35 μM ATP. Catalytic activities of recombinant JAK2, JAK3 and TYK2 kinase domain (0.2, 0.3 and 2 nM, respectively) are evaluated by the phosphorylation status of the JAK3-974 (50 μM; sequence LPLDKDYYVVR) peptide with the addition of ATP (15, 4 and 10 μM, respectively). The reactions proceed for 100 minutes and the catalytic activity is quantified by first depleting the unused ATP, converting the hydrolyzed ADP into ATP to generate luminescence in a luciferase reaction; which is the basis of the ADP-Glo platform. Compounds are tested at either 10 μM or 1 μM top concentration, 11 points of 3-fold dilution. The data is normalized and the percent activity versus log concentration of compound is fitted with a 4-parameter logistic model to generate a curve and an IC50 value.

In experiment [2] the target is human JAK1 catalytic kinase (JH1) domain (Homo sapiens (Human), UniProt P23458). In words: ADP-Glo Kinase Assay, recombinant JAK1 catalytic kinase (JH1) domain. Particulars: recombinant JH1 domain 4 nM, 35 μM ATP, JAK3-342 peptide, mean, read-out: JAK1 biochem IC50 (nM) Mean. As to the method: as §1, §2
For experiment [3], the target named is human JAK2 catalytic kinase (JH1) domain (Homo sapiens (Human), UniProt O60674). In words: ADP-Glo Kinase Assay, recombinant JAK2 catalytic kinase (JH1) domain. The conditions noted are these: recombinant JH1 domain 0.2 nM, 15 μM ATP, JAK3-974 peptide, mean, read-out: JAK2 biochem IC50 (nM) Mean. As to the method: as §1, §2
Experiment [4] addresses human JAK3 catalytic kinase (JH1) domain (Homo sapiens (Human), UniProt P52333). In words: ADP-Glo Kinase Assay, recombinant JAK3 catalytic kinase (JH1) domain. The conditions noted are these: recombinant JH1 domain 0.3 nM, 4 μM ATP, JAK3-974 peptide, mean, read-out: JAK3 biochem IC50 (nM) Mean. As to the method: as §1, §2

The structures appear in SMILES notation. Counter-ions that a name gives are not always drawn.

human JAK1 catalytic kinase (JH1) domain, sequence (P23458 875-1153): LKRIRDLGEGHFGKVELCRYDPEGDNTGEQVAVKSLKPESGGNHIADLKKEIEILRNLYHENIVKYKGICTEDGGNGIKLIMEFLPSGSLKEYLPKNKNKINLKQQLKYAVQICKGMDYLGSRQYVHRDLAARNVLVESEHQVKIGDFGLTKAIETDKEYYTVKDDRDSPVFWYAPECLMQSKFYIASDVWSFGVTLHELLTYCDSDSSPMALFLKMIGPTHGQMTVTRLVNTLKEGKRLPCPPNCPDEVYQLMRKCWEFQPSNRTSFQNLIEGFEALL
human JAK3 catalytic kinase (JH1) domain, sequence (P52333 822-1111): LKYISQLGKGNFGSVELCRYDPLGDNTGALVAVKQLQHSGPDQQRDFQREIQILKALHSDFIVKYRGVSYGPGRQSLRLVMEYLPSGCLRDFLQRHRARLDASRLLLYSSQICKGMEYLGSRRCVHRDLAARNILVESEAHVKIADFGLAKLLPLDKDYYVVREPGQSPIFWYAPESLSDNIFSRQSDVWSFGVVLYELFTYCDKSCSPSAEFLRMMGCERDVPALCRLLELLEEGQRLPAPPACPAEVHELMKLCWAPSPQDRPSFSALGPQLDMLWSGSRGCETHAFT
human TYK2 catalytic kinase (JH1) domain, sequence (P29597 897-1176): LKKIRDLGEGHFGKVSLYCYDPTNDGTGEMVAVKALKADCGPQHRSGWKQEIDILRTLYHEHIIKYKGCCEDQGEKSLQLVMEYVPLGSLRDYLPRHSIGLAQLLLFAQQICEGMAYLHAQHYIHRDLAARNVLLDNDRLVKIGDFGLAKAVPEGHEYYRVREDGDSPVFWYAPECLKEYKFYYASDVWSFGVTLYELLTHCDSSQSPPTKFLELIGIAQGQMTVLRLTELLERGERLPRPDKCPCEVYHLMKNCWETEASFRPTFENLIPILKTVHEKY
human JAK2 catalytic kinase (JH1) domain, sequence (O60674 849-1124): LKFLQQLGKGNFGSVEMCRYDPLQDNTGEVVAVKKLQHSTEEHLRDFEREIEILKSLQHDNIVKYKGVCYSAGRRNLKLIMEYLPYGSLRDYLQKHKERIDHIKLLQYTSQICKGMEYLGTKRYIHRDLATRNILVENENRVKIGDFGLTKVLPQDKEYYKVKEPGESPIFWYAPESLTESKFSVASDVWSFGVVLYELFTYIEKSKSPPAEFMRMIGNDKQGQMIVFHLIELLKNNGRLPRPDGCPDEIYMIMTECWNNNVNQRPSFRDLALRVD

For `Cn1cc(-c2cc3c(N4CC5CCC(C4)N5C(=O)[C@@H]4C[C@H]4C#N)ncnn3c2)cn1` (single isomer, unassigned) [Example 74], the IC50 in experiment [1] amounted to 126 nM; in experiment [2] it was 1280 nM; in experiment [3], 1910 nM; in experiment [4], 4040 nM.

`COc1cnc(-c2cc3c(N4CC5CCC(C4)N5C(=O)[C@@H]4C[C@H]4F)ccnn3c2)cn1` [Example 124, ((1S,2R)-2-fluorocyclopropyl)(3-(6-(5-methoxypyrazin-2-yl)pyrrolo[1,2-b]pyridazin-4-yl)-3,8-diazabicyclo[3.2.1]octan-8-yl)methanone]: the IC50 is 54.5 nM in experiment [1], 405 nM in experiment [2], 700 nM in experiment [3] and 7440 nM in experiment [4].

For `O=C([C@@H]1C[C@H]1F)N1C2CCC1CN(c1ccnn3cc(-c4ccc(C(F)(F)F)nc4)cc13)C2` [Example 117, ((1S,2R)-2-fluorocyclopropyl)(3-(6-(6-(trifluoromethyl)pyridin-3-yl)pyrrolo[1,2-b]pyridazin-4-yl)-3,8-diazabicyclo[3.2.1]octan-8-yl)methanone], the IC50 in experiment [1] was 5.2 nM; in experiment [2] it was 67 nM; in experiment [3] it was 64 nM; in experiment [4], 878 nM.

As for `Cn1cc(-c2cc3c(N4CC5CCC(C4)N5C(=O)[C@@H]4C[C@H]4F)ccnc3[nH]2)cn1` [Example 238, ((1S,2R)-2-fluorocyclopropyl)(3-(2-(1-methyl-1H-pyrazol-4-yl)-1H-pyrrolo[2,3-b]pyridin-4-yl)-3,8-diazabicyclo[3.2.1]octan-8-yl)methanone], the half-maximal inhibitory concentration (IC50) in experiment [1] came to 0.1 nM; in experiment [2] it was 10 nM; in experiment [3], 6 nM; in experiment [4] it was 61 nM.

For `O=C([C@@H]1C[C@H]1F)N1C2CCC1CN(c1ccnn3cc(C4CCOC4)cc13)C2` (stereo partly drawn) [Example 175, ((1S,2R)-2-fluorocyclopropyl)(3-(6-(tetrahydrofuran-3-yl)pyrrolo[1,2-b]pyridazin-4-yl)-3,8-diazabicyclo[3.2.1]octan-8-yl)methanone], the IC50 in experiment [1] was 847 nM; in experiment [2], no less than 10000 nM; in experiment [3] it was no less than 10000 nM; in experiment [4], no less than 10000 nM.

As for `CNc1nccc(-c2cc3c(N4CC5CCC(C4)N5C(=O)[C@@H]4C[C@H]4F)ccnn3c2)n1` [Example 126, ((1S,2R)-2-fluorocyclopropyl)(3-(6-(2-(methylamino)pyrimidin-4-yl)pyrrolo[1,2-b]pyridazin-4-yl)-3,8-diazabicyclo[3.2.1]octan-8-yl)methanone], the concentration for half-maximal inhibition (IC50) was 8.8 nM in experiment [1], 54 nM in experiment [2], 98 nM in experiment [3] and 1460 nM in experiment [4].

Take `Cn1cc(-c2cc3c(N4CC5CCC(C4)N5C(=O)C4CC4)ccnn3c2)cn1` [Example 15, cyclopropyl(3-(6-(1-methyl-1H-pyrazol-4-yl)pyrrolo[1,2-b]pyridazin-4-yl)-3,8-diazabicyclo[3.2.1]octan-8-yl)methanone]: the IC50 in experiment [1] was found to be 13 nM; in experiment [2] it was 646 nM; in experiment [3] it was 376 nM; in experiment [4], 888 nM.

As to `Cc1ccc(-c2nc3c(N4CC5CCC(C4)N5C(=O)[C@@H]4C[C@H]4F)ccnc3[nH]2)cn1` [Example 205, ((1S,2R)-2-fluorocyclopropyl)(3-(2-(6-methylpyridin-3-yl)-3H-imidazo[4,5-b]pyridin-7-yl)-3,8-diazabicyclo[3.2.1]octan-8-yl)methanone], the IC50 came to 4.6 nM in experiment [1], 25 nM in experiment [2], 22 nM in experiment [3] and 246 nM in experiment [4].

`Cc1ccc(-c2cc3c(N4CC5CCC(C4)N5C(=O)[C@@H]4C[C@H]4F)ncnn3c2)cn1` [Example 92, ((1S,2R)-2-fluorocyclopropyl)(3-(6-(6-methylpyridin-3-yl)pyrrolo[2,1-f][1,2,4]triazin-4-yl)-3,8-diazabicyclo[3.2.1]octan-8-yl)methanone]: the IC50 came out at 42.2 nM in experiment [1], 744 nM in experiment [2], 1160 nM in experiment [3] and 4820 nM in experiment [4].

In the case of `O=C(C1C[C@H]1F)N1C2CCC1CN(c1ncnc3[nH]c(-c4ccncc4F)cc13)C2` (stereo partly shown) [Example 232], the IC50 in experiment [1] was 13.1 nM; in experiment [2], 226 nM; in experiment [3], 322 nM; in experiment [4], 848 nM.

For the compound `N#CCC(=O)N1C2CCC1CN(c1ncnn3cc(-c4cnn(C(F)F)c4)cc13)C2` [Example 44, 3-(3-(6-(1-(difluoromethyl)-1H-pyrazol-4-yl)pyrrolo[2,1-f][1,2,4]triazin-4-yl)-3,8-diazabicyclo[3.2.1]octan-8-yl)-3-oxopropanenitrile], the IC50 in experiment [1] came to 236 nM; in experiment [2], 395 nM; in experiment [3] it was 4180 nM; in experiment [4] it was 5390 nM.

In the case of `N#Cc1ccc(-c2cc3c(N4CC5CCC(C4)N5C(=O)[C@@H]4C[C@H]4F)ncnc3[nH]2)cn1` [Example 227, 5-(4-(8-((1S,2R)-2-fluorocyclopropane-1-carbonyl)-3,8-diazabicyclo[3.2.1]octan-3-yl)-7H-pyrrolo[2,3-d]pyrimidin-6-yl)picolinonitrile], the IC50 was found to be 31.6 nM in experiment [1], 268 nM in experiment [2], 418 nM in experiment [3] and 1590 nM in experiment [4].

As for `COc1cc(-c2cc3c(N4CC5CCC(C4)N5C(=O)[C@@H]4C[C@H]4F)ccnn3c2)c(F)cn1` [Example 27, (3-(6-(5-fluoro-2-methoxypyridin-4-yl)pyrrolo[1,2-b]pyridazin-4-yl)-3,8-diazabicyclo[3.2.1]octan-8-yl)((1S,2R)-2-fluorocyclopropyl)methanone], the IC50 in experiment [1] was determined as 16 nM; in experiment [2], 277 nM; in experiment [3], 325 nM; in experiment [4] it was 4000 nM.

Turning to `CC(C(=O)N1C2CCC1CN(c1ncnn3cc(-c4cnn(C(F)F)c4)cc13)C2)C(F)(F)F` (stereo not shown) [Example 31, 1-(3-(6-(1-(difluoromethyl)-1H-pyrazol-4-yl)pyrrolo[2,1-f][1,2,4]triazin-4-yl)-3,8-diazabicyclo[3.2.1]octan-8-yl)-3,3,3-trifluoro-2-methylpropan-1-one trifluoroacetate], the 50% inhibitory concentration (IC50) came to 193 nM in experiment [1], 1480 nM in experiment [2], 4460 nM in experiment [3] and 6320 nM in experiment [4].

Consider `CNc1ccc(-c2cc3c(N4CC5CCC(C4)N5C(=O)[C@@H]4C[C@H]4F)ccnn3c2)cn1` [Example 129, ((1S,2R)-2-fluorocyclopropyl)(3-(6-(6-(methylamino)pyridin-3-yl)pyrrolo[1,2-b]pyridazin-4-yl)-3,8-diazabicyclo[3.2.1]octan-8-yl)methanone], for which the IC50 in experiment [1] was found to be 3.8 nM; in experiment [2], 69 nM; in experiment [3] it was 73 nM; in experiment [4], 658 nM.

Regarding `COc1nn(C)cc1-c1cc2c(N3CC4CCC(C3)N4C(=O)[C@@H]3C[C@H]3F)ncnn2c1` [Example 98, ((1S,2R)-2-fluorocyclopropyl)(3-(6-(3-methoxy-1-methyl-1H-pyrazol-4-yl)pyrrolo[2,1-f][1,2,4]triazin-4-yl)-3,8-diazabicyclo[3.2.1]octan-8-yl)methanone], the IC50 in experiment [1] is 9.8 nM; in experiment [2] it was 672 nM; in experiment [3], 216 nM; in experiment [4] it was 1640 nM.

For `Cn1cnc(-c2cc3c(N4CC5CCC(C4)N5C(=O)C4CC4)ncnn3c2)c1` [Example 143, Cyclopropyl(3-(6-(1-methyl-1H-imidazol-4-yl)pyrrolo[2,1-f][1,2,4]triazin-4-yl)-3,8-diazabicyclo[3.2.1]octan-8-yl)methanone], the IC50 in experiment [1] stood at 533 nM; in experiment [2], 10000 nM; in experiment [3], 9940 nM; in experiment [4], 9690 nM.

For `O=C(C1CC1)N1C2CCC1CN(c1ncnc3[nH]c(-c4cnn(C(F)F)c4)cc13)C2` [Example 219, cyclopropyl(3-(6-(1-(difluoromethyl)-1H-pyrazol-4-yl)-7H-pyrrolo[2,3-d]pyrimidin-4-yl)-3,8-diazabicyclo[3.2.1]octan-8-yl)methanone], the IC50 came out at 23.6 nM in experiment [1], 232 nM in experiment [2], 752 nM in experiment [3] and 698 nM in experiment [4].

`O=C(C1CC1)N1C2CCC1CN(c1ncnn3cc(-c4ccnc(Cl)c4)cc13)C2` [Example 180]: the IC50 in experiment [1] was found to be 547 nM; in experiment [2], 4750 nM; in experiment [3], 10000 nM; in experiment [4], 10000 nM.
